Reference: US3959252A, “Alkamoyl-josamycins” (Yamanouchi Pharmaceutical Co., Ltd., priority 1968, dated 1976)
Read-outs that look alike come from different tables or passages of the source.

Key:
[1] = tested on: Bacillus subtilis ATCC 6635; assay: MIC, agar dilution on nutrient agar; assay type: cell-based; conditions: ATCC6635, acetylated Josamycins as Josamycin equivalent, read-out: Minimum Inhibitory Concentration (MIC)
Method: (§1) Experimental procedure: Minimum inhibitory concentrations (MIC) were determined as to Josamycin, monoacetyl-josamycin-1, monoacetyl-josamycin-2and diacetyl-josamycin, according to usual agar dilution method on nutrient agar.

Escherichia coli PCI 602 = assay: MIC, agar dilution on nutrient agar; assay type: cell-based; conditions: PCI602, acetylated Josamycins as Josamycin equivalent, read-out: Minimum Inhibitory Concentration (MIC)
Method: as §1

Mycobacterium 607 = assay: MIC, agar dilution on nutrient agar; assay type: cell-based; conditions: acetylated Josamycins as Josamycin equivalent, read-out: Minimum Inhibitory Concentration (MIC)
Method: as §1

Salmonella typhi H 901W = assay: MIC, agar dilution on nutrient agar; assay type: cell-based; conditions: Salmonella enterica, read-out: Minimum Inhibitory Concentration (MIC)
Method: as §1

[2] = tested on: Shigella flexneri 2a 1675; assay: MIC, agar dilution on nutrient agar; assay type: cell-based; conditions: 2A1675, acetylated Josamycins as Josamycin equivalent, read-out: Minimum Inhibitory Concentration (MIC)
Method: as §1

[3] = tested on: Staphylococcus aureus FDA 209P Smith; assay: MIC, agar dilution on nutrient agar; assay type: cell-based; conditions: FDA209P, acetylated Josamycins as Josamycin equivalent, read-out: Minimum Inhibitory Concentration (MIC)
Method: as §1

[4] = tested on: Staphylococcus aureus FDA 209P; assay: MIC, agar dilution on nutrient agar; assay type: cell-based; conditions: FDA209P, acetylated Josamycins as Josamycin equivalent, read-out: Minimum Inhibitory Concentration (MIC)
Method: as §1

[5] = tested on: Staphylococcus aureus PC, CP, TC, SA resistant; assay: MIC, agar dilution on nutrient agar; assay type: cell-based; conditions: acetylated Josamycins as Josamycin equivalent, read-out: Minimum Inhibitory Concentration (MIC)
Method: as §1

[6] = tested on: Staphylococcus aureus PC, SM, TC, EM, SA resistant; assay: MIC, agar dilution on nutrient agar; assay type: cell-based; conditions: acetylated Josamycins as Josamycin equivalent, read-out: Minimum Inhibitory Concentration (MIC)
Method: as §1

pKa' measurement = assay type: physicochemical; conditions: 40% aqueous methanol
Source text: 4. pKa' less than 6 (measured in 40% aqueous methanol)
4. pKa 7.03 (measured in 40% aqueous methanol)

[7] = tested on: Staphylococcus aureus No. 226 strain; assay: Protection of mice from subcutaneous Staphylococcal infection; assay type: in vivo; conditions: 48 hours, control 88.2
Method: Experimental procedure: Groups of 5 mice were inoculated subcutaneously in the back with 10^8 cells (in 0.1 ml volume) of Staphylococcus aureus No. 226 strain. Immediately after the infection, Josamycin or monoacetyl-josamycin-2 was administered orally. To the control group, no medicament was administered. After 48 hours, the animals were killed. The skin of the back of each mouse was cut open, and the size of subcutaneous abscess was measured.

[8] = tested on: Staphylococcus aureus Smith; assay: Protection of mice from systemic staphylococcal infection; assay type: in vivo; conditions: 5 mice, control 0 of 10
Source text: Experimental procedure: Group of 5 mice were inoculated intraperitoneally with 1000 MLD (containing 5% of mucin added) of Staphylococcus aureus Smith. Immediately after the infection, a single dose of each antibiotic was given orally. The survival of mice after 7 days was observed. The group for control (10 mice) was given no antibiotic.

[9] = Josamycin base, as described; cited from earlier work
[10] = titrated in aqueous methanol; base form; cited from earlier work
[11] = tested on: staphylococci resistant to streptothricin, telomycin, streptomycin, chloramphenicol, or penicillin; conditions: cited from earlier work
[12] = 200 mg/kg oral (as Josamycin equivalent)
[13] = 50 mg/kg oral single dose (as Josamycin equivalent)
[14] = 150 mg/kg oral single dose (as Josamycin equivalent)
[15] = 500 mg/kg oral single dose (as Josamycin equivalent)

| Compound | MIC [1] [µg/mL] | MIC (Escherichia coli PCI 602) [µg/mL] | MIC (Mycobacterium 607) [µg/mL] | MIC (Salmonella typhi H 901W) [µg/mL] | MIC [2] [µg/mL] | MIC [3] [µg/mL] | MIC [4] [µg/mL] | MIC [5] [µg/mL] | MIC [6] [µg/mL] | Size of abscess [7, 12] [mm^2] | Survival on 7th day (number of mice) [8, 13] | Survival on 7th day (number of mice) [8, 14] | Survival on 7th day (number of mice) [8, 15] | pKa (pKa' measurement; read-out: pKa') | Solubility (easily soluble solvents) (Solubility) | Solubility (hardly soluble solvents) (Solubility) | Solubility (soluble solvents) (Solubility) | also measured |
| --- | --- | --- | --- | --- | --- | --- | --- | --- | --- | --- | --- | --- | --- | --- | --- | --- | --- | --- |
| COC1C(OC(C)=O)CC(=O)OC(C)C/C=C/C=C/C(OC(C)=O)C(C)CC(CC=O)C1OC1OC(C)C(OC2CC(C)(O)C(OC(=O)CC(C)C)C(C)O2)C(N(C)C)C1OC(C)=O (centres unmarked) [Diacetyl-josamycin, diacetyl-josamycin] | 0.39 | > 100 | 3.1 | > 100 | 50 | 0.39 | 0.39 | 0.78 | > 100 | – | – | – | – | – | – | – | – | pKa (pKa' measurement): < 6 |
| CO[C@@H]1[C@@H](O[C@@H]2O[C@H](C)[C@@H](O[C@H]3C[C@@](C)(O)[C@@H](OC(=O)CC(C)C)[C@H](C)O3)[C@H](N(C)C)[C@H]2O)[C@@H](CC=O)C[C@@H](C)[C@@H](O)/C=C/C=C/C[C@@H](C)OC(=O)C[C@H]1OC(C)=O [Josamycin] | 0.39 | > 100 | 3.1 | > 100 | 50 | 0.39 | 0.39 | 0.78 | > 100 | 4.19 | 0 | 2 | 5 | – | – | – | – | Size of abscess ([7]; 50 mg/kg oral): 21.2 mm^2; Solubility (easily soluble solvents) [9]: easily soluble in acidic water, methanol, ethanol, chloroform, ethyl acetate, and acetone; Solubility (slightly soluble solvents) [9]: slightly soluble in water, petroleum ether, ligroin, and n-hexane; Solubility (soluble solvents) [9]: soluble in benzene, ether and carbon tetrachloride; pKa' [10]: 7.1; Inhibition of growth of resistant staphylococci [11]: inhibits the growth |
| COC1C(OC(C)=O)CC(=O)OC(C)C/C=C/C=C/C(OC(C)=O)C(C)CC(CC=O)C1OC1OC(C)C(OC2CC(C)(O)C(OC(=O)CC(C)C)C(C)O2)C(N(C)C)C1O (centres unmarked) [Monoacetyl-josamycin-2, monoacetyl-josamycin-2] | 0.39 | > 100 | 3.1 | > 100 | 50 | 0.39 | 0.39 | 0.78 | > 100 | 0.64 | 0 | 3 | 5 | 7.03 | easily soluble in acetone, chloroform, methanol, ethyl acetate and ethylether | hardly soluble in water, petroleum ether and n-hexane | soluble in carbon tetrachloride | – |
| COC1C(OC(C)=O)CC(=O)OC(C)C/C=C/C=C/C(O)C(C)CC(CC=O)C1OC1OC(C)C(OC2CC(C)(O)C(OC(=O)CC(C)C)C(C)O2)C(N(C)C)C1OC(C)=O (centres unmarked) [Monoacetyl-josamycin-1, 2'-acetyl-josamycin] | 0.39 | > 100 | 3.1 | > 100 | 50 | 0.39 | 0.39 | 0.78 | > 100 | – | – | – | – | < 6 | easily soluble in acetone, methylethylketone, chloroform, ethyl acetate and benzene | hardly soluble in water, petroleum ether and n-hexane | soluble in methanol and ethanol | – |
